Test results taken from patent publication US12220410B2, “Antitumor composition” (priority 2019, dated 2025).
pIC50: −log10 of the molar value. Read-outs that look alike come from different tables or passages of the source.

Key:
[1] = system: human acute myelogenous leukemia (AML) cell line KG-1; assay type: in vivo
[2] = system: human diffuse large B-cell lymphoma cell line OCI-Ly7; assay type: in vivo
[3] = system: human breast cancer cell line MDA-MB-453; experiment: In vivo antitumor effect test, MDA-MB-453 tumor, compound A and lapatinib (Example 37); parameters: species or system NOD-SCID mice
Procedure: The tumor volume was calculated from tumor diameters by the following formula: (Long diameter×[Short diameter]^2×0.5). Using the calculated tumor volume value, the relative tumor volume (ratio of the tumor volume on the day of measurement to the baseline tumor volume on Day 1) was calculated. […] Further, the tumor growth delay rate (% TGD) was calculated according to the following formula: % TGD={(T−C)/C}×100, Where: • T: […] relative tumor volume of the control group to reach 1600% 6) Statistical Analysis
Compound A was suspended in a 1% hypromellose solution to prepare 20 mg/mL test substance suspensions (a suspension for preparing a single administration solution and a suspension for preparing a 100 mg/kg combined administration solution). The 20 mg/mL test substance suspensions were diluted with a 1% hypromellose solution to prepare 10 mg/mL (100 mg/kg administration solution), 6 mg/mL (suspension for preparing a 30 mg/kg combined administration solution), and 3 mg/mL (30 mg/kg administration solution) test substance suspensions. Lapatinib was suspended in a 1% hypromellose solution to prepare a 20 mg/mL suspension for preparing a 100 mg/kg lapatinib combined administration solution. The 20 mg/mL suspension was diluted with a 1% hypromellose solution to prepare a 10 mg/mL suspension for 100 mg/kg single administration. The administration solution of the combination group was prepared by mixing the 6 mg/mL compound A suspension and the 20 mg/mL lapatinib suspension at 1:1, or mixing the 20 mg/mL compound A suspension and the 20 mg/mL lapatinib suspension at 1:1.
MDA-MB-453 was obtained from ATCC. […] The collected cells were suspended in serum-free RPMI 1640 medium at 1.0×10^8 cells/mL.
5-week-old female NOD-SCID mice (NOD.CB17-Prkdcscid/J, produced by Charles River Japan Co., Ltd.) were used. The female NOD-SCID mice were bred in the same manner as in Example 36. The cell suspension was inoculated at 2×10^7 cells/body into the subcutaneous space of the right axillary region of the 6-week-old NOD-SCID mice, and the mice were grouped in the same manner as in Example 36 using the tumor volume as an index.
The administration was started on the next day of the grouping (Day 2), and compound A and lapatinib were orally administered once a day for 28 consecutive days. Each group (N=8) was treated as follows. • (1) Control (solvent control) group: 1% hypromellose solution • (2) Compound A (30 mg/kg) treated group: 30 mg/kg of compound A (oral administration once a day for 28 consecutive days) • (3) Compound A (100 mg/kg) treated group: 100 mg/kg of compound A (oral administration once a day for 28 consecutive days) • (4) Lapatinib (100 mg/kg) treated group: 100 mg/kg of lapatinib (oral administration once a day for 28 consecutive days) • (5) Combination group 1: 30 mg/kg of compound A (oral administration once a day for 28 consecutive days)+100 mg/kg of lapatinib (oral administration once a day for 28 consecutive days) • (6) Combination group 2: 100 mg/kg of compound A (oral administration once a day for 28 consecutive days)+100 mg/kg of lapatinib (oral administration once a day for 28 consecutive days)

[4] = system: human diffuse large B-cell lymphoma (DLBCL) cell line OCI-Ly7; experiment: In vitro cell growth inhibition test, OCI-Ly7 (cell viability, combination index); assay type: cell-based; conditions: compound A 0 nM, OCI-Ly7
[5] = system: human diffuse large B-cell lymphoma cell line OCI-Ly7; assay type: in vivo; remark: listed apart in the source
[6] = system: human follicular lymphoma cell line DOHH-2; experiment: In vitro cell growth inhibition test (CellTiter-Fluor), DOHH-2; assay type: cell-based; conditions: for pIC50: Homo sapiens, DOHH-2, 120 h; for FIC (fractional inhibitory concentration): DOHH-2
[7] = system: human acute myelogenous leukemia (AML) cell line KG-1; assay type: in vivo; remark: listed apart in the source
[8] = system: human diffuse large B-cell lymphoma cell line OCI-Ly7; assay type: in vivo; remark: listed apart in the source
[9] = cyclophosphamide 50 mg/kg intraperitoneally on Days 2, 5, 9, 12, relative tumor volume 1600%
[10] = lapatinib 100 mg/kg orally once a day for 28 days, relative tumor volume 200%
[11] = bendamustine 15 mg/kg intraperitoneally on Days 2, 3, 4, 5, 6, relative tumor volume 1600%
[12] = rituximab 10 mg/kg intraperitoneally on Days 2, 9, 16, relative tumor volume 600%

Nc1ncn([C@H]2C[C@H](O)[C@@H](CO)O2)c(=O)n1 [Decitabine, 5-aza-2′-deoxycytidine, reference compound]
antitumor effect on KG-1 tumor (monotherapy) ([1]; compound A 30 mg/kg, decitabine 1 mg/kg): antitumor effect
T/C (ratio of relative tumor volume of treated group to control group) ([1]; decitabine monotherapy 1 mg/kg intraperitoneally, twice a week, Day 23): 27.7%

O=P1(N(CCCl)CCCl)NCCCO1 (centres unmarked) [Cyclophosphamide, reference compound]
effectiveness of monotherapy (tumor growth delay) ([2]; 30 or 100 mg/kg of compound A, 50 mg/kg of cyclophosphamide): effective
Median Time (time for relative tumor volume to reach 1600%) ([2]; cyclophosphamide 50 mg/kg intraperitoneally on Days 2, 5, 9, 12): 23.4 days
Tumor growth delay [2, 9]: 10.7 days
Tumor growth delay rate [2, 9]: 83.9%

CS(=O)(=O)CCNCc1ccc(-c2ccc3ncnc(Nc4ccc(OCc5cccc(F)c5)c(Cl)c4)c3c2)o1 [Lapatinib, reference compound]
effectiveness of monotherapy (tumor growth delay) ([3]; 30 or 100 mg/kg of compound A, 100 mg/kg of lapatinib): effective
Median Time (time for relative tumor volume to reach 200%) ([3]; lapatinib 100 mg/kg orally once a day for 28 days): 34.2 days
Tumor growth delay [3, 10]: 11.4 days
Tumor growth delay rate [3, 10]: 50.0%

Cn1c(CCCC(=O)O)nc2cc(N(CCCl)CCCl)ccc21 [Bendamustine]
Cell viability (ratio relative to the drug-free control) ([4]; bendamustine 1.25 nM): 0.93
Cell viability (ratio relative to the drug-free control) ([4]; bendamustine 2.5 nM): 0.87
Cell viability (ratio relative to the drug-free control) ([4]; bendamustine 5 nM): 0.66
Cell viability (ratio relative to the drug-free control) ([4]; bendamustine 10 nM): 0.29
effectiveness of monotherapy (tumor growth delay) ([5]; 30 mg/kg of compound A, 15 mg/kg of bendamustine): effective
Median Time (time for relative tumor volume to reach 1600%) ([5]; bendamustine 15 mg/kg intraperitoneally on Days 2, 3, 4, 5, 6): 24.3 days
Tumor growth delay [5, 11]: 8.8 days
Tumor growth delay rate [5, 11]: 56.5%
pIC50 ([6]; read-out: IC50 value of bendamustine in each concentration of compound A, compound A 0 nM (bendamustine alone), DOHH-2, 1000 cells/well, 120 hours): 5.01
pIC50 ([6]; read-out: IC50 value of bendamustine in each concentration of compound A, compound A 39.1 nM, DOHH-2, 120 hours): 5.25
pIC50 ([6]; read-out: IC50 value of bendamustine in each concentration of compound A, compound A 78.1 nM, DOHH-2, 120 hours): 5.53
pIC50 ([6]; read-out: IC50 value of bendamustine in each concentration of compound A, compound A 156.3 nM, DOHH-2, 120 hours): 5.82
pIC50 ([6]; read-out: IC50 value of bendamustine in each concentration of compound A, compound A 312.5 nM, DOHH-2, 120 hours): 7.39
FIC (fractional inhibitory concentration) ([6]; bendamustine fixed at 0 nM, compound A at its IC50): 0
FIC (fractional inhibitory concentration) ([6]; bendamustine fixed at 1250 nM, compound A at its IC50): 0.127
FIC (fractional inhibitory concentration) ([6]; bendamustine fixed at 2500 nM, compound A at its IC50): 0.253
FIC (fractional inhibitory concentration) ([6]; bendamustine fixed at 5000 nM, compound A at its IC50): 0.506
FIC (fractional inhibitory concentration) ([6]; compound A fixed at 0 nM, bendamustine at its IC50): 1
FIC (fractional inhibitory concentration) ([6]; compound A fixed at 39.1 nM, bendamustine at its IC50): 0.566
FIC (fractional inhibitory concentration) ([6]; compound A fixed at 78.1 nM, bendamustine at its IC50): 0.300
FIC (fractional inhibitory concentration) ([6]; compound A fixed at 156.3 nM, bendamustine at its IC50): 0.152
FIC (fractional inhibitory concentration) ([6]; compound A fixed at 312.5 nM, bendamustine at its IC50): 0.004

Nc1ccn([C@@H]2O[C@H](CO)[C@@H](O)[C@@H]2O)c(=O)n1 [Cytarabine, reference compound]
antitumor effect on KG-1 tumor (monotherapy) ([7]; compound A 30 mg/kg, cytarabine 50 mg/kg): antitumor effect
T/C (ratio of relative tumor volume of treated group to control group) ([7]; cytarabine monotherapy 50 mg/kg intraperitoneally, 5-day administration and 2-day cessation, Day 16): 62.3%

Rituximab: anti-CD20 antibody; Rituxan (trademark) 100 mg/10 mL, purchased from Genentech [reference compound]
effectiveness of monotherapy (tumor growth delay) ([8]; 30 mg/kg of compound A, 10 mg/kg of rituximab): effective
Median Time (time for relative tumor volume to reach 600%) ([8]; rituximab 10 mg/kg intraperitoneally on Days 2, 9, 16): 28.4 days
Tumor growth delay [8, 12]: 12.1 days
Tumor growth delay rate [8, 12]: 74.2%
